Assay results published in US7199286B2, “Plant-derived novel pathogen and SAR-induction chemical induced promoters, and fragments thereof” (Syngenta Participations AG, priority 1999, dated 2007).

Assays:
NI16 RNA = assay: Induction of NI16 mRNA by SA and BTH spray, RNA blot hybridization; format: in vivo, Arabidopsis; settings: WS-O plants sprayed with 5 mM SA or 300 μm BTH
Procedure: RNA is prepared from 4 week old Wassilewskija (WS—O) plants, that are either sprayed with water, a 5 mM solution of sodium salicylate (SA), or a 300 μm solution of benzo-(1,2,3)-thiadiazole-7-carbothioic acid S-methyl ester (BTH). […] RNA extractions and RNA blot hybridizations are performed as described previously by Ausubel et al. (1987). NI16 RNA is induced 5–10 fold within 15 minutes of SA or BTH induction and reaches a peak of approximately 50 fold induction within 2 hours of SA treatment and 25 fold induction with BTH treatment.

[1] = system: NI16 promoter fragment 962 bp; assay: GUS florescence assay of promoter::GUS plants after SA application, NI16 962 bp fragment; format: in vivo, Arabidopsis; settings: 5 mM SA spray
Excerpt: A binary promoter::reporter plasmid (pNOV2374) for Arabidopsis transformation was constructed. The regulatory/promoter sequence was fused to the GUS reporter gene (Jefferson et al. (1987) EMBO J 6: 3901-3907) by recombination using […] Technology according to the manufacturer's protocol as described in the Instruction Manual (LifeTechnologies, Rockville, Md.). The construct was then transformed into Agrobacterium tumefaciens strains by electroporation. pNOV2374 is a binary vector with a VS1 origin of replication, a copy of the Agrobacterium virg gene in the backbone, and a Basta® resistance selectable marker cassette between the left and right border sequences of the T-DNA. The Basta® selectable marker cassette comprises the Agrobacterium tumefaciens manopine synthase promoter (AtMas) (Barker et al., Plant Mol. Biol. 2, 335-350 (1983)) operably linked to the gene encoding Basta® resistance (i.e., the “BAR” gene, phosphinothricin acetyl transferase) (White et al., Nucl Acids Res 18: 1062 (1990)) and the 35S terminator. The AtMas promoter, the BAR coding sequence, and the 35S terminator are located at nt 4211 to nt 4679, nt 4680 to nt 5228, and nt 5263 to nt 5488, respectively, of pNOV2374. The vector contains […] recombination components, which were introduced into the binary vector backbone by ligating a blunt-ended cassette containing attR sites, ccdB, and a cholramphenicol resistance marker using the […] Vector Conversion System (LifeTechnologies, Rockville, Md.). The […] cassette was located between nt 126 and 1818 of pNOV2374. The promoter cassettes were inserted through an LR recombination reaction whereby the DNA sequence of pNOV2374 between nt 126 and nt 1818 were removed and replaced with the promoter of interest flanked by att sequences. […] The GIG gene (SEQ ID NO:29) contains the ST-LS1 intron from Solanum tuberosum at nt 385 to nt 576 of GUS (obtained from Dr. Stanton […], Purdue University, and described in Narasimhulu, et al. (1996) Plant Cell 8: 873-886.). […] The treatment was applied as a fine mist to the leaves. […] For quantitative analysis of promoter activity following induction treatments or in various Arabidopsis tissues and organs, GUS expression is measured florometrically. Tissue samples were harvested and ground in ice cold GUS extraction buffer (50 mM Na2HPO4 pH 7.0, 5 mM DTT, 1 mM Na2EDTA, 0.1% TritonX100, 0.1% sarcosyl). Ground samples were spun in a microfuge at 10,000 rpm for 15 minutes at 4° C. Following centrifugation, the supernatant was removed for the GUS assay and for a protein concentration determination. To measure GUS activity, the plant extract was assayed in GUS assay buffer (50 mM Na2HPO4 pH 7.0, 5 mM DTT, 1 mM Na2EDTA, 0.1% TritonX100, 0.1% sarcosyl, 1 mM 4-Methylumbelliferyl-beta-D-glucuronic acid dihydrate (MUG)), pre-warmed to 37° C. Reactions were incubated, and 100 uL aliquots were removed at 10 minute intervals over 30 minutes to stop the reaction by adding the 100 uL aliquots to tubes containing 900 uL of 2% Na2CO3. The stopped reactions were then read on a Tecan Spectroflourometer at 365 nm excitation and 455 emission wavelengths. Protein concentrations were determined using the BCA assay following the manufacturer's protocol. GUS activity is expressed as pmol MU/mg protein/min.

O=C(O)c1ccccc1O [SA, salicylic acid]
time NI16 transcript remains highly induced after treatment (NI16 RNA): up to 24 hours | NI16 RNA peak induction (NI16 RNA; peak, within 2 hours of SA treatment): approximately 50 fold | GUS Activity Induced by SA ([1]; 2 h): 86.8 pmol/mg protein/min | GUS activity Fold-change relative to T0 (uninduced) ([1]; 2 h): 2.2 fold | GUS Activity Induced by SA ([1]; 4 h): 260.8 pmol/mg protein/min | GUS activity Fold-change relative to T0 (uninduced) ([1]; 4 h): 6.6 fold | GUS Activity Induced by SA ([1]; 8 h): 467.7 pmol/mg protein/min | GUS Activity Induced by SA ([1]; 24 h): 1457.5 pmol/mg protein/min | GUS activity Fold-change relative to T0 (uninduced) ([1]; 24 h): 36.7 fold
